# Laboratory results reported in PubChem BioAssay (NCI).
#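 48-hour exposure; five concentrations; linearly interpolated endpoints. TGI denotes the concentration required for complete inhibition of growth.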
# Tests used:
# Test in all cases: NCI tumour cell line growth inhibition, 48 h
# 786-0 renal = test system: 786-0 renal
# A498 renal = test system: A498 renal
# A549 NSCLC = test system: A549 NSCLC
# ACHN renal = test system: ACHN renal
# BT-549 breast = test system: BT-549 breast
# CAKI-1 renal = test system: CAKI-1 renal
# CCRF-CEM leukemia = test system: CCRF-CEM leukemia
# COLO 205 colon = test system: COLO 205 colon
# DU-145 prostate = test system: DU-145 prostate
# HCC-2998 colon = test system: HCC-2998 colon
# HCT-116 colon = test system: HCT-116 colon
# HCT-15 colon = test system: HCT-15 colon
# HOP-62 NSCLC = test system: HOP-62 NSCLC
# HOP-92 NSCLC = test system: HOP-92 NSCLC
# HS 578T breast = test system: HS 578T breast
# HT29 colon = test system: HT29 colon
# IGROV1 ovarian = test system: IGROV1 ovarian
# K-562 leukemia = test system: K-562 leukemia
# KM12 colon = test system: KM12 colon
# M14 melanoma = test system: M14 melanoma
# MALME-3M melanoma = test system: MALME-3M melanoma
# MCF7 breast = test system: MCF7 breast
# MDA-MB-231 breast = test system: MDA-MB-231 breast
# MDA-MB-435 = test system: MDA-MB-435
# MDA-N = test system: MDA-N
# MOLT-4 leukemia = test system: MOLT-4 leukemia
# NCI-H226 lung = test system: NCI-H226 lung
# NCI-H23 lung = test system: NCI-H23 lung
# NCI-H460 lung = test system: NCI-H460 lung
# NCI-H522 lung = test system: NCI-H522 lung
# NCI/ADR-RES ovarian = test system: NCI/ADR-RES ovarian
# OVCAR-3 ovarian = test system: OVCAR-3 ovarian
# OVCAR-4 ovarian = test system: OVCAR-4 ovarian
# OVCAR-5 ovarian = test system: OVCAR-5 ovarian
# OVCAR-8 ovarian = test system: OVCAR-8 ovarian
# PC-3 prostate = test system: PC-3 prostate
# RPMI-8226 leukemia = test system: RPMI-8226 leukemia
# RXF 393 renal = test system: RXF 393 renal
# SF-268 CNS = test system: SF-268 CNS
# SF-295 CNS = test system: SF-295 CNS
# SF-539 CNS = test system: SF-539 CNS
# SK-MEL-2 melanoma = test system: SK-MEL-2 melanoma
# SK-MEL-28 melanoma = test system: SK-MEL-28 melanoma
# SK-MEL-5 melanoma = test system: SK-MEL-5 melanoma
# SK-OV-3 ovarian = test system: SK-OV-3 ovarian
# SN12C renal = test system: SN12C renal
# SNB-75 CNS = test system: SNB-75 CNS
# SR leukemia = test system: SR leukemia
# SW-620 colon = test system: SW-620 colon
# T-47D breast = test system: T-47D breast
# TK-10 renal = test system: TK-10 renal
# U251 CNS = test system: U251 CNS
# UACC-257 melanoma = test system: UACC-257 melanoma
# UACC-62 melanoma = test system: UACC-62 melanoma
# UO-31 renal = test system: UO-31 renal
# EKVX NSCLC = test system: EKVX NSCLC
# HL-60(TB) leukemia = test system: HL-60(TB) leukemia
# LOX IMVI melanoma = test system: LOX IMVI melanoma
# SNB-19 CNS = test system: SNB-19 CNS
structure (smiles),measurement,setting,value
O=C1CC(=O)NC(=NN2C(=O)CSC2c2ccc(Cl)cc2)N1 (centres undefined),TGI,786-0 renal,> 100 µM
same,TGI,A498 renal,> 100 µM
same,TGI,A549 NSCLC,> 100 µM
same,TGI,ACHN renal,> 100 µM
same,TGI,BT-549 breast,> 100 µM
same,TGI,CAKI-1 renal,> 100 µM
same,TGI,CCRF-CEM leukemia,83.3 µM
same,TGI,COLO 205 colon,> 100 µM
same,TGI,DU-145 prostate,> 100 µM
same,TGI,HCC-2998 colon,> 100 µM
same,TGI,HCT-116 colon,> 100 µM
same,TGI,HCT-15 colon,> 100 µM
same,TGI,HOP-62 NSCLC,60.9 µM
same,TGI,HOP-92 NSCLC,> 100 µM
same,TGI,HS 578T breast,> 100 µM
same,TGI,HT29 colon,> 100 µM
same,TGI,IGROV1 ovarian,> 100 µM
same,TGI,K-562 leukemia,> 100 µM
same,TGI,KM12 colon,> 100 µM
same,TGI,M14 melanoma,> 100 µM
same,TGI,MALME-3M melanoma,> 100 µM
same,TGI,MCF7 breast,> 100 µM
same,TGI,MDA-MB-231 breast,> 100 µM
same,TGI,MDA-MB-435,> 100 µM
same,TGI,MDA-N,> 100 µM
same,TGI,MOLT-4 leukemia,> 100 µM
same,TGI,NCI-H226 lung,> 100 µM
same,TGI,NCI-H23 lung,> 100 µM
same,TGI,NCI-H460 lung,> 100 µM
same,TGI,NCI-H522 lung,> 100 µM
same,TGI,NCI/ADR-RES ovarian,> 100 µM
same,TGI,OVCAR-3 ovarian,> 100 µM
same,TGI,OVCAR-4 ovarian,> 100 µM
same,TGI,OVCAR-5 ovarian,> 100 µM
same,TGI,OVCAR-8 ovarian,> 100 µM
same,TGI,PC-3 prostate,> 100 µM
same,TGI,RPMI-8226 leukemia,> 100 µM
same,TGI,RXF 393 renal,> 100 µM
same,TGI,SF-268 CNS,> 100 µM
same,TGI,SF-295 CNS,> 100 µM
same,TGI,SF-539 CNS,> 100 µM
same,TGI,SK-MEL-2 melanoma,> 100 µM
same,TGI,SK-MEL-28 melanoma,> 100 µM
same,TGI,SK-MEL-5 melanoma,> 100 µM
same,TGI,SK-OV-3 ovarian,> 100 µM
same,TGI,SN12C renal,47.6 µM
same,TGI,SNB-75 CNS,> 100 µM
same,TGI,SR leukemia,> 100 µM
same,TGI,SW-620 colon,> 100 µM
same,TGI,T-47D breast,> 100 µM
same,TGI,TK-10 renal,> 100 µM
same,TGI,U251 CNS,> 100 µM
same,TGI,UACC-257 melanoma,> 100 µM
same,TGI,UACC-62 melanoma,> 100 µM
same,TGI,UO-31 renal,> 100 µM
C[C@H]1[C@H]2[C@H](C[C@@]3(C)C4=CC[C@H]5C(C)(C)[C@@H](OC6OCC(O)C(O)C6O)CC[C@@]56C[C@@]46CC[C@]23C)O[C@@]2(O)[C@@H]1OC(C)(C)[C@H]2O (some centres undefined),TGI,786-0 renal,2.76 µM
same,TGI,A498 renal,4.95 µM
same,TGI,A549 NSCLC,5.5 µM
same,TGI,ACHN renal,6.35 µM
same,TGI,BT-549 breast,8.78 µM
same,TGI,CAKI-1 renal,5.57 µM
same,TGI,CCRF-CEM leukemia,3.24 µM
same,TGI,COLO 205 colon,16.1 µM
same,TGI,DU-145 prostate,1.91 µM
same,TGI,EKVX NSCLC,2.61 µM
same,TGI,HCC-2998 colon,1.45 µM
same,TGI,HCT-116 colon,4.21 µM
same,TGI,HCT-15 colon,3.43 µM
same,TGI,HL-60(TB) leukemia,28.8 µM
same,TGI,HOP-62 NSCLC,5.7 µM
same,TGI,HOP-92 NSCLC,3.28 µM
same,TGI,HS 578T breast,3.7 µM
same,TGI,HT29 colon,8.97 µM
same,TGI,IGROV1 ovarian,1.85 µM
same,TGI,K-562 leukemia,50 µM
same,TGI,KM12 colon,4.12 µM
same,TGI,LOX IMVI melanoma,6.28 µM
same,TGI,M14 melanoma,10.7 µM
same,TGI,MALME-3M melanoma,3.79 µM
same,TGI,MCF7 breast,1.72 µM
same,TGI,MDA-MB-231 breast,6.9 µM
same,TGI,MDA-MB-435,2.17 µM
same,TGI,MDA-N,7.48 µM
same,TGI,MOLT-4 leukemia,24.2 µM
same,TGI,NCI-H226 lung,6.73 µM
same,TGI,NCI-H23 lung,3.31 µM
same,TGI,NCI-H460 lung,7.83 µM
same,TGI,NCI-H522 lung,2.42 µM
same,TGI,NCI/ADR-RES ovarian,9.94 µM
same,TGI,OVCAR-3 ovarian,9.61 µM
same,TGI,OVCAR-4 ovarian,7.17 µM
same,TGI,OVCAR-5 ovarian,11.5 µM
same,TGI,OVCAR-8 ovarian,1.81 µM
same,TGI,PC-3 prostate,2.32 µM
same,TGI,RPMI-8226 leukemia,4.68 µM
same,TGI,RXF 393 renal,3.71 µM
same,TGI,SF-268 CNS,6.35 µM
same,TGI,SF-295 CNS,6.47 µM
same,TGI,SF-539 CNS,6.88 µM
same,TGI,SK-MEL-2 melanoma,11.5 µM
same,TGI,SK-MEL-28 melanoma,6.23 µM
same,TGI,SK-MEL-5 melanoma,4.71 µM
same,TGI,SK-OV-3 ovarian,4.55 µM
same,TGI,SN12C renal,2.75 µM
same,TGI,SNB-19 CNS,8.4 µM
same,TGI,SNB-75 CNS,6 µM
same,TGI,SR leukemia,9.01 µM
same,TGI,SW-620 colon,3.74 µM
same,TGI,T-47D breast,1.81 µM
same,TGI,TK-10 renal,3.95 µM
same,TGI,U251 CNS,5.5 µM
same,TGI,UACC-257 melanoma,4.7 µM
same,TGI,UACC-62 melanoma,5.32 µM
same,TGI,UO-31 renal,10.2 µM
